The target in the test is PKM2 (Homo sapiens, UniProt P14618). In words: PKM2 Assay (activation, LDH-coupled, absorbance at 340 nm). The class given is biochemical. An outline of the steps:
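Read-out was the 340 nm NADH absorbance change at 25 °C in an LDH-coupled system (PEP 0.15 mM, NADH 180 μM, ADP 0.7 mM to initiate) in 50 mM Tris pH 7.5, 100 mM KCl, 5 mM MgCl2. PKM2 at 50 ng/well was first preincubated with compound for 30 min at 4 °C. Activation given as AC50.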

For orientation: AC50 means the concentration at which the activity in the assay is half-maximal. Low values mean activity at low concentration, high ones activity only at high concentration.

PKM2, sequence (P14618 whole entry): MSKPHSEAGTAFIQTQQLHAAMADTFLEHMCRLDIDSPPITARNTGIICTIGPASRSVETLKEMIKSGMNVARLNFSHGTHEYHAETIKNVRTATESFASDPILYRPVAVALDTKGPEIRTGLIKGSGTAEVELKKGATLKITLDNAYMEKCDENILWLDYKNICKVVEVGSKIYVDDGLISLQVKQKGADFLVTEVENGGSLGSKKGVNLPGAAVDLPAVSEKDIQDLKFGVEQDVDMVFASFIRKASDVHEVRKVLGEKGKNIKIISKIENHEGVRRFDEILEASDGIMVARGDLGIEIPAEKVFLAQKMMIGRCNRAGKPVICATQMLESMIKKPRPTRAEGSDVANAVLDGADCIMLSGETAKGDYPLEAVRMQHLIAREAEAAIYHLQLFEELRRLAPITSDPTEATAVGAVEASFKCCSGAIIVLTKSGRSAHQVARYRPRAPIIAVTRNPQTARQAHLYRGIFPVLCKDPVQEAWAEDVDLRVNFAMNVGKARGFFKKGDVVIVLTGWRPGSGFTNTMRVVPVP

For `O=C(c1ccc(NS(=O)(=O)c2cccc3cccnc23)c(OC(F)(F)F)c1)N1CCN(Cc2ccc(Cl)cc2)CC1` [Compound 338, N-(4-(4-(4-chlorobenzyl)piperazine-1-carbonyl)-2-(trifluoromethoxy)phenyl)quinoline-8-sulfonamide], the half-maximal activity concentration (AC50) (Table 5) lay within 100 to 500 nM. On to `C[C@H]1CN(CC2CC2)CCN1C(=O)c1ccc(NS(=O)(=O)c2cccc3cccnc23)cc1Cl` [Compound 178], for which the AC50 (Table 4) lay within 100 to 500 nM. Take `O=C(c1ccc(NS(=O)(=O)c2cccc3cccnc23)c(OC(F)(F)F)c1)N1CCN(Cc2cccc(Cl)c2Cl)CC1` [Compound 306, N-(4-(4-(2,3-dichlorobenzyl)piperazine-1-carbonyl)-2-(trifluoromethoxy)phenyl)quinoline-8-sulfonamide]: the AC50 (Table 5) lay in the range of 500 to 1000 nM.

Under “Table 4”, `CC(c1c(F)cc(F)cc1F)N1CCN(C(=O)c2ccc(NS(=O)(=O)c3cccc4cccnc34)cc2)[C@H](C)C1` (stereo partly shown) [Compound 167] had an AC50 of less than 100 nM.

With `[2H]C([2H])(c1cc(F)cc(F)c1)N1CCN(C(=O)c2ccc(NS(=O)(=O)c3cccc4cccnc34)cc2)CC1` [Compound 449, N-(4-(4-(3,5-difluorobenzyl)piperazine-1-carbonyl)phenyl)quinoline-8-sulfonamide-(D2)], the concentration at half-maximal activity (AC50) (Table 5) is less than 100 nM.

On to `O=C(c1ccc(NS(=O)(=O)c2cccc3cccnc23)cc1Cl)N1CCN(Cc2ccc(Cl)c(F)c2)CC1` [Compound 432, N-(3-chloro-4-(4-(4-chloro-3-fluorobenzyl)piperazine-1-carbonyl)phenyl)quinoline-8-sulfonamide], for which the half-maximal activity concentration (AC50) (Table 5) lay within 100 to 500 nM. For the compound `O=C(Oc1ccccn1)N1CCN(C(=O)c2ccc(NS(=O)(=O)c3cccc4cccnc34)c(OC(F)(F)F)c2)CC1` [Compound 344, Pyridin-2-yl4-(4-(quinoline-8-sulfonamido)-3-(trifluoromethoxy)benzoyl)piperazine-1-carboxylate], the concentration at half-maximal activity (AC50) (Table 5) was in the range of 500 to 1000 nM. On the same count and under the same terms, the same measure for `O=C(c1ccc(NS(=O)(=O)c2cccc3cccnc23)c(OC(F)(F)F)c1)N1CCN(Cc2ccncc2Cl)CC1` [Compound 307, N-(4-(4-((3-chloropyridin-4-yl)methyl)piperazine-1-carbonyl)-2-(trifluoromethoxy)phenyl)quinoline-8-sulfonamide]: 100 to 500 nM; for `COc1cc(NS(=O)(=O)c2cccc3cccnc23)ccc1C(=O)N1CCN(C2(c3ccc(F)cc3)CC2)CC1` [Compound 401, N-(4-(4-(1-(4-fluorophenyl)cyclopropyl)piperazine-1-carbonyl)-3-methoxyphenyl)quinoline-8-sulfonamide]: less than 100 nM; for `O=C(c1ccc(NS(=O)(=O)c2cccc3cccnc23)cc1Cl)N1CCN(Cc2ccc(F)cc2)CC1` [Compound 431, N-(3-chloro-4-(4-(4-fluorobenzyl)piperazine-1-carbonyl)phenyl)quinoline-8-sulfonamide]: less than 100 nM. As for `C[C@@H]1CN(CC2CCCO2)CCN1C(=O)c1ccc(NS(=O)(=O)c2cccc3cccnc23)cc1` (stereo partly drawn) [Compound 147, N-(4-((2R)-2-methyl-4-((tetrahydrofuran-2-yl)methyl)piperazine-1-carbonyl)phenyl)quinoline-8-sulfonamide], where the note is “Table 4”, the half-maximal activity concentration (AC50) was less than 100 nM.

In the case of `O=C(c1ccc(NS(=O)(=O)c2cccc3cccnc23)cn1)N1CCN(Cc2cc(F)cc(F)c2)CC1` [Compound 414, N-(6-(4-(3,5-difluorobenzyl)piperazine-1-carbonyl)pyridin-3-yl)quinoline-8-sulfonamide], the AC50 (Table 5) is 100 to 500 nM.

Turning to `C[C@H]1CN(CC2CCCC2)CCN1C(=O)c1ccc(NS(=O)(=O)c2cccc3cccnc23)cc1Cl` [Compound 186, (S)—N-(3-chloro-4-(4-(cyclopentylmethyl)-2-methylpiperazine-1-carbonyl)phenyl)quinoline-8-sulfonamide], for the setting “Table 4”, the AC50 is less than 100 nM.

As for `CC(c1c(F)ccc(F)c1F)N1CCN(C(=O)c2ccc(NS(=O)(=O)c3cccc4cccnc34)cc2)[C@H](C)C1` (stereo partly drawn) [Compound 190, N-(4-((2R)-2-methyl-4-(1-(2,3,6-trifluorophenyl)ethyl)piperazine-1-carbonyl)phenyl)quinoline-8-sulfonamide], under “Table 4”, the AC50 was less than 100 nM. Consider `O=C(c1ccc(NS(=O)(=O)c2cccc3cccnc23)cc1Cl)N1CCN(CC2CCOCC2)CC1` [Compound 440, N-(3-chloro-4-(4-((tetrahydro-2H-pyran-4-yl)methyl)piperazine-1-carbonyl)phenyl)quinoline-8-sulfonamide], for which the concentration at half-maximal activity (AC50) (Table 5) was 100 to 500 nM. On the same count and under the same terms, under `O=C(c1ccc(NS(=O)(=O)c2cccc3cccnc23)cc1)N1CCN(C(=O)c2ccncc2F)CC1` [Compound 317, N-(4-(4-(3-fluoroisonicotinoyl)piperazine-1-carbonyl)phenyl)quinoline-8-sulfonamide] stands less than 100 nM. Under “Table 4”, `C[C@@H]1CN(C(=O)OCC2CC2)CCN1C(=O)c1ccc(NS(=O)(=O)c2cccc3cccnc23)cc1` [Compound 112, (R)-Cyclopropylmethyl 3-methyl-4-(4-(quinoline-8-sulfonamido)benzoyl)piperazine-1-carboxylate] had a half-maximal activity concentration (AC50) of less than 100 nM. As to `O=C(c1ccc(NS(=O)(=O)c2cccc3cccnc23)c(OC(F)(F)F)c1)N1CCN(Cc2cncc(Cl)c2)CC1` [Compound 367, N-(4-(4-((5-chloropyridin-3-yl)methyl)piperazine-1-carbonyl)-2-(trifluoromethoxy)phenyl)quinoline-8-sulfonamide], the AC50 (Table 5) fell in the range of 100 to 500 nM. The same measure, in the same setting: under `COc1ncccc1CN1CCN(C(=O)c2ccc(NS(=O)(=O)c3cccc4cccnc34)c(OC(F)(F)F)c2)CC1` [Compound 368, N-(4-(4-((2-methoxypyridin-3-yl)methyl)piperazine-1-carbonyl)-2-(trifluoromethoxy)phenyl)quinoline-8-sulfonamide] stands 100 to 500 nM. `CC(c1cc(F)cc(F)c1)N1CCN(C(=O)c2ccc(NS(=O)(=O)c3cccc4cccnc34)cc2)[C@H](C)C1` (stereo partly drawn) [Compound 135, N-(4-((2R)-4-(1-(3,5-difluorophenyl)ethyl)-2-methylpiperazine-1-carbonyl)phenyl)quinoline-8-sulfonamide] had an AC50 (Table 4) of less than 100 nM. As to `O=C(c1cnc(NS(=O)(=O)c2cccc3cccnc23)cn1)N1CCN(Cc2ccc(F)cc2)CC1` [Compound 452, N-(5-(4-(4-fluorobenzyl)piperazine-1-carbonyl)pyrazin-2-yl)quinoline-8-sulfonamide], the concentration at half-maximal activity (AC50) (Table 5) lay in the range of 1000 to 20000 nM. On to `C[C@@H]1CN(C(=O)OC2CCOCC2)CCN1C(=O)c1ccc(NS(=O)(=O)c2cccc3cccnc23)cc1` [Compound 124, (R)-Tetrahydro-2H-pyran-4-yl-3-methyl-4-(4-(quinoline-8-sulfonamido)benzoyl)piperazine-1-carboxylate], for which the AC50 (Table 4) lay within 100 to 500 nM. `O=C(c1ccc(NS(=O)(=O)c2cccc3cccnc23)c(OC(F)(F)F)c1)N1CCN(CCc2ccccc2)CC1` [Compound 303, N-(4-(4-phenethylpiperazine-1-carbonyl)-2-(trifluoromethoxy)phenyl)quinoline-8-sulfonamide] had a concentration at half-maximal activity (AC50) (Table 5) of 100 to 500 nM.

Take `CC(C)(c1ccccc1)N1CCN(C(=O)c2ccc(NS(=O)(=O)c3cccc4cccnc34)cc2)CC1` [Compound 364]: the AC50 (Table 5) was less than 100 nM. For the setting “Table 4”, `C[C@H]1CN(C[C@H]2CCOC2)CCN1C(=O)c1ccc(NS(=O)(=O)c2cccc3cccnc23)cc1` [Compound 210] came in with an AC50 of 100 to 500 nM. The same measure, in the same setting: the same measure for `C[C@@H]1CN(C(=O)OCCC2CCCC2)CCN1C(=O)c1ccc(NS(=O)(=O)c2cccc3cccnc23)cc1` [Compound 122, (R)-2-Cyclopentylethyl-3-methyl-4-(4-(quinoline-8-sulfonamido)benzoyl)piperazine-1-carboxylate]: less than 100 nM; for `C[C@@H]1CN(Cc2ccc(Cl)c(F)c2)CCN1C(=O)c1ccc(NS(=O)(=O)c2cccc3cccnc23)cc1` [Compound 125, (R)—N-(4-(4-(4-chloro-3-fluorobenzyl)-2-methylpiperazine-1-carbonyl)phenyl)quinoline-8-sulfonamide]: less than 100 nM. The compound `O=C(c1ccc(NS(=O)(=O)c2cccc3cccnc23)c(OC(F)(F)F)c1)N1CCN(Cc2cc(Cl)cc(Cl)c2)CC1` [Compound 391, N-(4-(4-(3,5-dichlorobenzyl)piperazine-1-carbonyl)-2-(trifluoromethoxy)phenyl)quinoline-8-sulfonamide] had an AC50 (Table 5) of 100 to 500 nM. `C[C@H]1CN(Cc2c(F)ccc(F)c2F)CCN1C(=O)c1ccc(NS(=O)(=O)c2cccc3cccnc23)cc1` [Compound 141, (S)—N-(4-(2-methyl-4-(2,3,6-trifluorobenzyl)piperazine-1-carbonyl)phenyl)quinoline-8-sulfonamide]: the AC50 (Table 4) was 100 to 500 nM. Compound `O=C(c1ccc(NS(=O)(=O)c2cccc3cccnc23)cc1Cl)N1CCN(Cc2cc(F)c(F)c(F)c2)CC1` [Compound 434, N-(3-chloro-4-(4-(3,4,5-trifluorobenzyl)piperazine-1-carbonyl)phenyl)quinoline-8-sulfonamide] had an AC50 (Table 5) of less than 100 nM. For the setting “Table 5”, `Cc1cnc(C(=O)N2CCN(C(=O)c3ccc(NS(=O)(=O)c4cccc5cccnc45)cc3)CC2)cn1` [Compound 346, N-(4-(4-(5-methylpyrazine-2-carbonyl)piperazine-1-carbonyl)phenyl)quinoline-8-sulfonamide] displayed an AC50 of 500 to 1000 nM. For `C[C@@H]1CN(CC2CC2)CCN1C(=O)c1ccc(NS(=O)(=O)c2cccc3cccnc23)cc1` [Compound 113, (R)—N-(4-(4-(cyclopropylmethyl)-2-methylpiperazine-1-carbonyl)phenyl)quinoline-8-sulfonamide], for the setting “Table 4”, the AC50 was less than 100 nM.

In turn, `CCOC(=O)N1CCN(C(=O)c2ccc(NS(=O)(=O)c3cccc4cccnc34)cn2)CC1` [Compound 447, Ethyl 4-(5-(quinoline-8-sulfonamido)picolinoyl)piperazine-1-carboxylate] showed a half-maximal activity concentration (AC50) (Table 5) of 1000 to 20000 nM.

For the compound `O=C(c1ccc(NS(=O)(=O)c2cccc3cccnc23)cc1)N1CCN(C(=O)c2cncs2)CC1` [Compound 348, N-(4-(4-(thiazole-5-carbonyl)piperazine-1-carbonyl)phenyl)quinoline-8-sulfonamide], for the setting “Table 5”, the AC50 is less than 100 nM.

Values taken from patent publication US8889667B2 (Agios Pharmaceuticals, Inc, priority 2010, dated 2014).
